Measured values: the supplement of paper PMC8882468

The molecules below were run on HCI-016 (organoid from a triple-negative breast cancer xenograft) (assay: CTG-3D luminescence at 96 h relative to day-0 seeding control (ratio to day 0); higher = more growth / less cytotoxicity; PDxO 3D drug screen, 96 h, CTG-3D normalised to day-0 seeding control.). Conditions: 12.5 pM; days in culture: 190.

First: C[C@H](NC(=O)CCC(F)(F)F)C(=O)N[C@@H]1C(=O)N(CCO)c2ncccc2-c2ccccc21 [crenigacestat]
Second: CN(Cc1cnc2nc(N)nc(N)c2n1)c1ccc(C(=O)N[C@@H](CCC(=O)O)C(=O)O)cc1 [methotrexate]
The “CTG-3D luminescence at 96 h” value of the first is lower: 1.45 for the first, 1.69 for the second.

Going from `COc1cccc2c1C(=O)c1c(O)c3c(c(O)c1C2=O)C[C@@](O)(C(=O)CO)C[C@@H]3O[C@H]1C[C@H](N)[C@H](O)[C@H](C)O1` [doxorubicin] to `Nc1ccn([C@@H]2O[C@H](CO)[C@@H](O)C2(F)F)c(=O)n1` [gemcitabine], the “CTG-3D luminescence at 96 h” value falls from 1.66 to 1.61.

Compared with `C[C@]12CC[C@@H]3c4ccc(O)cc4C[C@@H](CCCCCCCCC[S+]([O-])CCCC(F)(F)C(F)(F)F)[C@H]3[C@@H]1CC[C@@H]2O` (stereo partly specified) [fulvestrant], `CC1(C)CCC(c2ccc(Cl)cc2)=C(CN2CCN(c3ccc(C(=O)NS(=O)(=O)c4ccc(N[C@H](CCN5CCOCC5)CSc5ccccc5)c(S(=O)(=O)C(F)(F)F)c4)cc3)CC2)C1` [navitoclax] is higher in “CTG-3D luminescence at 96 h” value: 1.79 for the first, 2.07 for the second.

Going from `C=CC(=O)N1CCC[C@@H](n2nc(-c3ccc(Oc4ccccc4)cc3)c3c(N)ncnc32)C1` [ibrutinib] to `NC(=O)c1cccc2cn(-c3ccc([C@@H]4CCCNC4)cc3)nc12` [niraparib], the “CTG-3D luminescence at 96 h” value rises from 1.59 to 1.64.

Same assay, conditions: 12.5 pM; days in culture: 199

Going from `C[C@H](NC(=O)CCC(F)(F)F)C(=O)N[C@@H]1C(=O)N(CCO)c2ncccc2-c2ccccc21` [crenigacestat] to `CN(Cc1cnc2nc(N)nc(N)c2n1)c1ccc(C(=O)N[C@@H](CCC(=O)O)C(=O)O)cc1` [methotrexate], the “CTG-3D luminescence at 96 h” value rises from 1.48 to 1.57.

Going from `COc1cccc2c1C(=O)c1c(O)c3c(c(O)c1C2=O)C[C@@](O)(C(=O)CO)C[C@@H]3O[C@H]1C[C@H](N)[C@H](O)[C@H](C)O1` [doxorubicin] to `Nc1ccn([C@@H]2O[C@H](CO)[C@@H](O)C2(F)F)c(=O)n1` [gemcitabine], the “CTG-3D luminescence at 96 h” value rises from 1.35 to 1.57.

First: C[C@]12CC[C@@H]3c4ccc(O)cc4C[C@@H](CCCCCCCCC[S+]([O-])CCCC(F)(F)C(F)(F)F)[C@H]3[C@@H]1CC[C@@H]2O (stereo partly specified) [fulvestrant]
Second: CC1(C)CCC(c2ccc(Cl)cc2)=C(CN2CCN(c3ccc(C(=O)NS(=O)(=O)c4ccc(N[C@H](CCN5CCOCC5)CSc5ccccc5)c(S(=O)(=O)C(F)(F)F)c4)cc3)CC2)C1 [navitoclax]
The “CTG-3D luminescence at 96 h” value of the first is lower: 1.92 for the first, 2.03 for the second.

Compared with `C=CC(=O)N1CCC[C@@H](n2nc(-c3ccc(Oc4ccccc4)cc3)c3c(N)ncnc32)C1` [ibrutinib], `NC(=O)c1cccc2cn(-c3ccc([C@@H]4CCCNC4)cc3)nc12` [niraparib] is higher in “CTG-3D luminescence at 96 h” value: 1.58 for the first, 2.02 for the second.

Same assay, conditions: 0.00025 µM; days in culture: 153

Compared with `C[C@H](NC(=O)CCC(F)(F)F)C(=O)N[C@@H]1C(=O)N(CCO)c2ncccc2-c2ccccc21` [crenigacestat], `CN(Cc1cnc2nc(N)nc(N)c2n1)c1ccc(C(=O)N[C@@H](CCC(=O)O)C(=O)O)cc1` [methotrexate] is lower in “CTG-3D luminescence at 96 h” value: 1.83 for the first, 1.65 for the second.

Going from `COc1cccc2c1C(=O)c1c(O)c3c(c(O)c1C2=O)C[C@@](O)(C(=O)CO)C[C@@H]3O[C@H]1C[C@H](N)[C@H](O)[C@H](C)O1` [doxorubicin] to `Nc1ccn([C@@H]2O[C@H](CO)[C@@H](O)C2(F)F)c(=O)n1` [gemcitabine], the “CTG-3D luminescence at 96 h” value rises from 1.26 to 1.91.

Compared with `C[C@]12CC[C@@H]3c4ccc(O)cc4C[C@@H](CCCCCCCCC[S+]([O-])CCCC(F)(F)C(F)(F)F)[C@H]3[C@@H]1CC[C@@H]2O` (stereo partly specified) [fulvestrant], `CC1(C)CCC(c2ccc(Cl)cc2)=C(CN2CCN(c3ccc(C(=O)NS(=O)(=O)c4ccc(N[C@H](CCN5CCOCC5)CSc5ccccc5)c(S(=O)(=O)C(F)(F)F)c4)cc3)CC2)C1` [navitoclax] is lower in “CTG-3D luminescence at 96 h” value: 2.2 for the first, 1.54 for the second.

Going from `C=CC(=O)N1CCC[C@@H](n2nc(-c3ccc(Oc4ccccc4)cc3)c3c(N)ncnc32)C1` [ibrutinib] to `NC(=O)c1cccc2cn(-c3ccc([C@@H]4CCCNC4)cc3)nc12` [niraparib], the “CTG-3D luminescence at 96 h” value rises from 1.69 to 1.98.

Same assay, conditions: 0.00025 µM; days in culture: 172

Going from `C[C@H](NC(=O)CCC(F)(F)F)C(=O)N[C@@H]1C(=O)N(CCO)c2ncccc2-c2ccccc21` [crenigacestat] to `CN(Cc1cnc2nc(N)nc(N)c2n1)c1ccc(C(=O)N[C@@H](CCC(=O)O)C(=O)O)cc1` [methotrexate], the “CTG-3D luminescence at 96 h” value falls from 1.87 to 1.68.

Compared with `COc1cccc2c1C(=O)c1c(O)c3c(c(O)c1C2=O)C[C@@](O)(C(=O)CO)C[C@@H]3O[C@H]1C[C@H](N)[C@H](O)[C@H](C)O1` [doxorubicin], `Nc1ccn([C@@H]2O[C@H](CO)[C@@H](O)C2(F)F)c(=O)n1` [gemcitabine] is higher in “CTG-3D luminescence at 96 h” value: 1.45 for the first, 1.97 for the second.

Compared with `C[C@]12CC[C@@H]3c4ccc(O)cc4C[C@@H](CCCCCCCCC[S+]([O-])CCCC(F)(F)C(F)(F)F)[C@H]3[C@@H]1CC[C@@H]2O` (stereo partly specified) [fulvestrant], `CC1(C)CCC(c2ccc(Cl)cc2)=C(CN2CCN(c3ccc(C(=O)NS(=O)(=O)c4ccc(N[C@H](CCN5CCOCC5)CSc5ccccc5)c(S(=O)(=O)C(F)(F)F)c4)cc3)CC2)C1` [navitoclax] is higher in “CTG-3D luminescence at 96 h” value: 1.77 for the first, 2.07 for the second.

Compared with `C=CC(=O)N1CCC[C@@H](n2nc(-c3ccc(Oc4ccccc4)cc3)c3c(N)ncnc32)C1` [ibrutinib], `NC(=O)c1cccc2cn(-c3ccc([C@@H]4CCCNC4)cc3)nc12` [niraparib] is higher in “CTG-3D luminescence at 96 h” value: 1.45 for the first, 2.33 for the second.

Same assay, conditions: 0.00025 µM; days in culture: 190

Compared with `C[C@H](NC(=O)CCC(F)(F)F)C(=O)N[C@@H]1C(=O)N(CCO)c2ncccc2-c2ccccc21` [crenigacestat], `CN(Cc1cnc2nc(N)nc(N)c2n1)c1ccc(C(=O)N[C@@H](CCC(=O)O)C(=O)O)cc1` [methotrexate] is higher in “CTG-3D luminescence at 96 h” value: 1.02 for the first, 1.3 for the second.

First: COc1cccc2c1C(=O)c1c(O)c3c(c(O)c1C2=O)C[C@@](O)(C(=O)CO)C[C@@H]3O[C@H]1C[C@H](N)[C@H](O)[C@H](C)O1 [doxorubicin]
Second: Nc1ccn([C@@H]2O[C@H](CO)[C@@H](O)C2(F)F)c(=O)n1 [gemcitabine]
The “CTG-3D luminescence at 96 h” value of the first is higher: 1.38 for the first, 1.34 for the second.

First: C[C@]12CC[C@@H]3c4ccc(O)cc4C[C@@H](CCCCCCCCC[S+]([O-])CCCC(F)(F)C(F)(F)F)[C@H]3[C@@H]1CC[C@@H]2O (stereo partly specified) [fulvestrant]
Second: CC1(C)CCC(c2ccc(Cl)cc2)=C(CN2CCN(c3ccc(C(=O)NS(=O)(=O)c4ccc(N[C@H](CCN5CCOCC5)CSc5ccccc5)c(S(=O)(=O)C(F)(F)F)c4)cc3)CC2)C1 [navitoclax]
The “CTG-3D luminescence at 96 h” value of the first is lower: 1.54 for the first, 1.62 for the second.

First: C=CC(=O)N1CCC[C@@H](n2nc(-c3ccc(Oc4ccccc4)cc3)c3c(N)ncnc32)C1 [ibrutinib]
Second: NC(=O)c1cccc2cn(-c3ccc([C@@H]4CCCNC4)cc3)nc12 [niraparib]
The “CTG-3D luminescence at 96 h” value of the first is lower: 1.26 for the first, 1.64 for the second.

Same assay, conditions: 0.00025 µM; days in culture: 199

First: C[C@H](NC(=O)CCC(F)(F)F)C(=O)N[C@@H]1C(=O)N(CCO)c2ncccc2-c2ccccc21 [crenigacestat]
Second: CN(Cc1cnc2nc(N)nc(N)c2n1)c1ccc(C(=O)N[C@@H](CCC(=O)O)C(=O)O)cc1 [methotrexate]
The “CTG-3D luminescence at 96 h” value of the first is lower: 1.3 for the first, 1.47 for the second.

Going from `COc1cccc2c1C(=O)c1c(O)c3c(c(O)c1C2=O)C[C@@](O)(C(=O)CO)C[C@@H]3O[C@H]1C[C@H](N)[C@H](O)[C@H](C)O1` [doxorubicin] to `Nc1ccn([C@@H]2O[C@H](CO)[C@@H](O)C2(F)F)c(=O)n1` [gemcitabine], the “CTG-3D luminescence at 96 h” value falls from 1.52 to 1.28.

Going from `C[C@]12CC[C@@H]3c4ccc(O)cc4C[C@@H](CCCCCCCCC[S+]([O-])CCCC(F)(F)C(F)(F)F)[C@H]3[C@@H]1CC[C@@H]2O` (stereo partly specified) [fulvestrant] to `CC1(C)CCC(c2ccc(Cl)cc2)=C(CN2CCN(c3ccc(C(=O)NS(=O)(=O)c4ccc(N[C@H](CCN5CCOCC5)CSc5ccccc5)c(S(=O)(=O)C(F)(F)F)c4)cc3)CC2)C1` [navitoclax], the “CTG-3D luminescence at 96 h” value rises from 2.05 to 2.16.

First: C=CC(=O)N1CCC[C@@H](n2nc(-c3ccc(Oc4ccccc4)cc3)c3c(N)ncnc32)C1 [ibrutinib]
Second: NC(=O)c1cccc2cn(-c3ccc([C@@H]4CCCNC4)cc3)nc12 [niraparib]
The “CTG-3D luminescence at 96 h” value of the first is lower: 1.62 for the first, 2.05 for the second.

Same assay, conditions: 0.005 µM; days in culture: 153

First: C[C@H](NC(=O)CCC(F)(F)F)C(=O)N[C@@H]1C(=O)N(CCO)c2ncccc2-c2ccccc21 [crenigacestat]
Second: CN(Cc1cnc2nc(N)nc(N)c2n1)c1ccc(C(=O)N[C@@H](CCC(=O)O)C(=O)O)cc1 [methotrexate]
The “CTG-3D luminescence at 96 h” value of the first is higher: 2.67 for the first, 2.64 for the second.

First: COc1cccc2c1C(=O)c1c(O)c3c(c(O)c1C2=O)C[C@@](O)(C(=O)CO)C[C@@H]3O[C@H]1C[C@H](N)[C@H](O)[C@H](C)O1 [doxorubicin]
Second: Nc1ccn([C@@H]2O[C@H](CO)[C@@H](O)C2(F)F)c(=O)n1 [gemcitabine]
The “CTG-3D luminescence at 96 h” value of the first is lower: 2.02 for the first, 2.52 for the second.

Going from `C[C@]12CC[C@@H]3c4ccc(O)cc4C[C@@H](CCCCCCCCC[S+]([O-])CCCC(F)(F)C(F)(F)F)[C@H]3[C@@H]1CC[C@@H]2O` (stereo partly specified) [fulvestrant] to `CC1(C)CCC(c2ccc(Cl)cc2)=C(CN2CCN(c3ccc(C(=O)NS(=O)(=O)c4ccc(N[C@H](CCN5CCOCC5)CSc5ccccc5)c(S(=O)(=O)C(F)(F)F)c4)cc3)CC2)C1` [navitoclax], the “CTG-3D luminescence at 96 h” value falls from 2.24 to 2.11.

Compared with `C=CC(=O)N1CCC[C@@H](n2nc(-c3ccc(Oc4ccccc4)cc3)c3c(N)ncnc32)C1` [ibrutinib], `NC(=O)c1cccc2cn(-c3ccc([C@@H]4CCCNC4)cc3)nc12` [niraparib] is higher in “CTG-3D luminescence at 96 h” value: 2.64 for the first, 2.84 for the second.
